From PMC5967645 (European scientific journal, 2017)

Tested on: calpain
Assay: immunoblot of calcium-induced calpain-mediated spectrin breakdown product
Format: biochemical, Rattus norvegicus

- IC50: 3 to 6 µM
Compound: CCOC(=O)[C@H]1O[C@@H]1C(=O)N[C@@H](CC(C)C)C(=O)NCCC(C)C [E64d, 2S,3S-trans-epoxysuccinyl-L-leucylamido-3-methylbutane ethyl ester]
